In patent US8609654B1, “Compounds for enzyme inhibition” (Onyx Therapeutics, Inc., priority 2006, dated 2013):

Key:
[1] = tested on: rheumatoid arthritis induced by immunization with bovine type II collagen in CFA; assay: Mouse model of RA by immunization with bovine type II collagen; assay type: in vivo, female DBA/1 mice
Procedure: The effect administration of Compound 14 on disease progress was also assessed in an alternative mouse model for RA, in which disease develops 21-30 days after immunization with bovine type II collagen (Kagari et al., J Immunol 169:1459-1466, 2002). […] Again, disease progression was measured using a total clinical score of paw condition per mouse.

[2] = tested on: rheumatoid arthritis induced by anti-type II collagen antibodies and LPS; assay: Arthrogenic antibody mouse model of rheumatoid arthritis (anti-collagen antibodies and LPS); assay type: in vivo, female Balb/c mice
Procedure: The effect of Compound 14 on disease progression was assessed in 2 mouse models of rheumatoid arthritis (FIG. 2). […] Rhematoid arthritis was induced on Day 0 in female Balb/c mice by IV administration of anti-type II collagen antibodies followed 3 days later by LPS. […] Per mouse, each paw was measured for disease using a scale of 0-4 and a total clinical score was assigned for each animal (max score=16). Administration of 6 mg/kg of Compound 14 reduced disease severity by ˜50% while the 20 mg/kg dose level inhibited the disease by greater than 75%.

[3] = molecular target: T1, 26S proteasome CT-L activity in lysate of HT29 (constitutive) vs Sultan/Thp1 (immunoproteasome) cells (Homo sapiens, UniProt P28062+P28074); assay: CT-L EC50 with 26S proteasome in cell lysate (Lysate ratio); assay type: biochemical; conditions: HT29 lysate to Sultan/Thp1 lysate, >1 = prefers immunoproteasome
T1 construct: using 26S proteasome in the context of a cell lysate; endogenous in cells; host or cells: HT29 lysate (constitutive); Sultan or THP1 lysate (immunoproteasome)
T1 sequence (P28074 60-263): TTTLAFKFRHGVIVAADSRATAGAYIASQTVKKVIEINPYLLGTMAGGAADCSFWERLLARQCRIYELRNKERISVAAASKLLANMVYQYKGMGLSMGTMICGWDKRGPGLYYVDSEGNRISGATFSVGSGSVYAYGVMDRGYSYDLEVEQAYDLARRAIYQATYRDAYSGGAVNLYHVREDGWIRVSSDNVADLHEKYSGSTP
T1 sequence (P28062 73-276): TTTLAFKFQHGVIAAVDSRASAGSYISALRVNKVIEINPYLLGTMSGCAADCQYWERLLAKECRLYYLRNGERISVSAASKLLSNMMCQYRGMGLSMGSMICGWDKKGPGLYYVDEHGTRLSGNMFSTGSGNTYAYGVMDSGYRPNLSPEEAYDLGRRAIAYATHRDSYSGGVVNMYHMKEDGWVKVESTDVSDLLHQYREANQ
Procedure: Alternatively, the CT-L EC50 of a compound can be determined using 26S proteasome in the context of a cell lysate. Compound is added to lysate generated from cells that either predominantly express constitutive proteasome (e.g., HT29) or immunoproteasome (e.g., THP1). Again, the inhibitory preference is then based on the EC50 ratio (Lysate ratio).

[4] = tested on: chymotryptic-like activity of isolated 20S constitutive proteasome vs immunoproteasome; assay: Enzyme kinetic assay with isolated 20S proteasome preps, EC50 ratio of CT-L activity (20S ratio); assay type: biochemical; conditions: constitutive proteasome to immunoproteasome, >1 = prefers immunoproteasome
Text: Enzyme kinetic assays such as those disclosed in U.S. application Ser. No. 09/569,748, Example 2 and Stein et al., Biochem. (1996), 35, 3899-3908 use isolated 20S proteasome preps with greater than 90% constitutive proteasome subunits or immunoproteasome subunits. The inhibitory preference of the molecule is then based on the EC50 ratio of the chymotryptic-like activity of the constitutive proteasome to that of the immunoproteasome (20S ratio).

[5] = molecular target: T2, 20S proteasome subunit β5 vs immunoproteasome subunit LMP7 in RPMI-8226 cells (Homo sapiens, UniProt P28062+P28074); assay: ELISA-based active site assay in RPMI-8226 cells (ELISA ratio); assay type: cell-based; conditions: EC50 ratio with β5 antibody to LMP7 antibody, RPMI-8226 cells; >1 = prefers immunoproteasome
T2 construct: Cells expressing approximately equivalent amounts of immuno- and constitutive proteasome (e.g., RPMI-8226) are treated with test compound; endogenous in cells; host or cells: RPMI-8226 multiple myeloma cells
T2 sequence (P28074 60-263): T1 sequence (P28074 60-263)
T2 sequence (P28062 73-276): T1 sequence (P28062 73-276)
Procedure: Lastly, a more cell-based approach can be utilized. Cells expressing approximately equivalent amounts of immuno- and constitutive proteasome (e.g., RPMI-8226) are treated with test compound, followed by the method for determining the activity of a proteasome inhibitor as described in application Ser. No. 11/254,541. The ratio of the EC50 generated in the ELISA-based assay using β5 antibody and LMP7 antibodies (ELISA ratio) provides the basis for determining the inhibitory preference of the test compound. […] In all three assays, a ratio of less than one denotes the molecule inhibits the CT-L activity of the constitutive proteasome better than that of the immunoproteasome. Ratios greater than one signifies the molecule inhibits chymotrypsin-like activity of the immunoproteasome better than that of the constitutive proteasome.
A suitable ELISA assay may be found in U.S. patent application Ser. No. 11/254,541, incorporated herein in its entirety. Briefly, RPMI-8226 cells were treated with 0.1 nM to 1 μM of proteasome Inhibitor B. The samples were then washed with phosphate-buffered saline (PBS) and lysed in hypotonic buffer (20 mM Tris pH 8, 5 mM EDTA) (Tris-HCl and EDTA are available from Teknova, Inc., Hollister, Calif.). Cellular debris was removed by centrifugation at 14,000 rpm in a microfuge (4° C.) for 2 min. The supernatant was transferred to a fresh tube, snap frozen in liquid nitrogen and stored at −80° C. After thawing on ice, the samples (30 μl for assays run in triplicate) were treated with 500 nM of Inhibitor A for 1 hr at room temperature. Following treatment with Inhibitor A, the lysate was denatured by addition of seven volumes of 1% SDS (210 μl) (available from Bio-Rad, Hercules, Calif.) and heating at 99° C. with vigorous shaking for 5 min. The sample was allowed to cool and two volumes (60 μl) of 10% Triton X-100 (available from Bio-Rad, Hercules, Calif.) was added.
Streptavidin sepharose beads (6.5 μl/well) (available from Amersham Biosciences, Piscataway, N.J.), were washed three times with 1 ml PBS (available from Mediatech, Inc., Herndon, Va.) in a microcentrifuge tube. The beads were resuspended in ELISA wash/block buffer (PBS+0.1% Tween 20+1% bovine serum albumin; 20 μl/well) and transferred to the wells of a 96 well filter plate (BSA is available from Sigma, St. Louis, Mo.; Tween is available from Calbiochem, San Diego, Calif.). Denatured whole blood or PBMC lysates that were treated with Inhibitor 3 were added to the filter plate wells containing the streptavidin sepharose beads (each sample assayed in triplicate) and incubated for 1 hr at room temperature with shaking (MultiScreen-DV Opaque Plates with low protein binding durapore membrane; available from Millipore, Billerica, Mass.). The unbound material was removed by gentle filtration and the beads were washed six times with ELISA wash/block buffer (200 μl each).
Primary antibody to human 20S proteasome subunit (35 (rabbit polyclonal antibody; available from Biomol, Plymouth Meeting, Pa.) or human 20S immunoproteasome subunit LMP7 (rabbit polyclonal antibody; available from Affinity BioReagents, Golden, Colo.) was diluted 1:1000 in ELISA wash/block buffer, added to the beads (100 μl/well), and incubated for 1 hr at room temperature on an orbital shaker. The beads were washed six times with ELISA wash/block buffer with gentle filtration. Secondary antibody treatment (1:5000) and washing are as described for primary antibody (goat anti-rabbit antibody-HRP conjugate; available from Biosource, Camarillo, Calif.). The beads were then resuspended in 100 μl chemiluminescent detection reagent (Super Signal Pico Chemiluminescent Substrate™; available from Pierce, Rockford, Ill.) and luminescence was read on a Tecan plate reader. […]

SMILES | effect on disease progression ([1]; 6 or 20 mg/kg beginning after first signs of disease, total clinical score) | dose dependence of reduction of disease severity ([1]; 6 vs 20 mg/kg) | reduction of disease severity ([2]; 6 mg/kg IV 3 times/week for 2 weeks from Day 4) [%] | inhibition of the disease ([2]; 20 mg/kg IV 3 times/week for 2 weeks from Day 4) | effect on disease progression ([2]; IV 3 times/week for 2 weeks from Day 4, total clinical score (max 16)) | Lysate ratio (HT29:Sultan/Thp1) [3] | 20 S ratio (const:immuno) [4] | Elisa ratio (beta5:LMP7) [5]
COc1ccc(C[C@H](NC(=O)[C@H](C)NC(=O)CN2CCOCC2)C(=O)N[C@@H](Cc2ccccc2)C(=O)[C@@]2(C)CO2)cc1 [Compound 14] | inhibited disease progression as compared to vehicle control | enhanced reduction of disease severity | ~50 | greater than 75% | inhibited disease progression in a dose dependent manner | – | – | –
C[C@H](NC(=O)OCc1ccccc1)C(=O)N[C@@H](Cc1ccc(C(C)(C)C)cc1)C(=O)N[C@@H](Cc1ccccc1)C(=O)C1(C)CO1 (some centres unmarked) | – | – | – | – | – | >2.0 | >2.0 | >3.0
CC(C)C[C@H](NC(=O)OCc1ccccc1)C(=O)N[C@H](CC(C)C)C(=O)N[C@@H](Cc1ccccc1)C(=O)C1(C)CO1 (some centres unmarked) | – | – | – | – | – | <0.5 | <0.5 | <0.5
CC(NC(=O)OCc1ccccc1)C(=O)N[C@@H](Cc1c[nH]c2ccccc12)C(=O)N[C@@H](Cc1ccccc1)C(=O)C1(C)CO1 (some centres unmarked) | – | – | – | – | – | >2.0 | >1.0 | >5.0
C[C@H](NC(=O)OCc1ccccc1)C(=O)N[C@@H](Cc1c[nH]c2ccccc12)C(=O)N[C@H](C(=O)C1(C)CO1)c1ccccc1 (some centres unmarked) | – | – | – | – | – | >5.0 | >2.0 | >3.0
